Where two headings read alike, the source gives them in different places.
Assay: Human coffee intervention study: plasma concentrations after roasted coffee brew by UPLC-MS/MS
Format: in vivo
Settings: for samples above the LLOQ: n = 10; for concentration at 1 h / concentration at 4 h / concentration at 10 h: human, plasma
Procedure: The study included ten volunteers (5 females, 5 males) (age: 28.3 ± 2.3 years; BMI: 21.89 ± 2.22 kg/m^2). The intervention study took place from November 5, 2021, to February 17, 2022, in the core facility human studies of the ZIEL Institute for Food and Health of the Technical University of Munich. The study was performed in agreement with the Declaration of Helsinki, and all participants gave written informed consent. The study was approved by the Ethics Committee of the Technical University of Munich (5798/13 S-SR) and registered in the German Register of Clinical Studies (DRKS00005083).
The study participants underwent a dietary protocol that excluded all forms of coffee consumption. Additionally, chocolate, black/green/white, mate tea, cola, energy drinks, and beauty products containing caffeine (e.g., shampoos, creams) were prohibited 1 week before the test day. Furthermore, the study participants received a standardized meal the evening before the test day. The meal was composed of pasta, margarine, and salt, and the amount of energy was calculated based on the participant’s basal energy demand. On the morning of the test day, the participants were in a fastened state and received water (control samples) or coffee brew (coffee intervention) as breakfast. Blood was sampled before coffee intake (0 h) and at defined time points (1, 4, and 10 h) after coffee intake. 6 h after the coffee intake, the participants received lunch, the same standardized meal as the previous dinner. The administered coffee was prepared from a coffee capsule (Nespresso, ROMA) with 100 mL water. The administered volume of the coffee brew was 200 mL. Based on the coffee powder per capsule ([…]), the concentrations of 2 (2.8 μmol/g) and 3 (1.1 μmol/g), respectively,[10] and an estimated extraction rate of 100%, the total ingested amounts were 33.6 μmol (2) and 13.2 μmol (3).
In an Eppendorf tube (1.5 mL), aliquots (50 μL each) of the calibration standard, sample, or QC, respectively, were mixed with the IS solution (1000 nM in ethanol, 50 μL) and acetonitrile/ethanol (9 + 1, v + v, 50 μL) was added. After vortexing, suspensions were cleared by centrifugation (12,000 rpm, 4 °C, 10 min), and the supernatant (∼100 μL) was transferred to an HPLC vial with 200 μL insert for analysis (5 μL injection).
The UPLC–MS/MS system consisted of a Shimadzu Nexera X2 UPLC system (Shimadzu, Duisburg, Germany) hyphenated to a QTrap 5500 MS/MS system (Sciex, Darmstadt, Germany) operating in negative electrospray (ESI^–) mode with the following ion source parameters: ion spray voltage: −4500 V; source temperature: 500 °C; nebulizer gas: 55 psi; heater gas: 65 psi; and curtain gas: 35 psi. The MS/MS parameters, including the collision cell entrance potential (CEP), declustering potential (DP), collision energy (CE), and cell exit potential (CXP), were tuned for each compound and mass transition and are summarized in Supporting Table S3. The dwell time for each compound was 30 ms, and the total cycle time was 0.75 s. Chromatographic separation was achieved on a C18 column (Kinetex C18, 100 mm × 2.1 mm, 1.7 μm, Phenomenex, Aschaffenburg, Germany) at a flow rate of 500 μL/min flow rate. Eluent A was 0.1% formic acid in water, and eluent B was 0.1% formic acid in acetonitrile. B was kept at 3% (1 min), increased to 25% (in 3 min), 90% (in 2 min, 1 min isocratic), and 3% (0.5 min, 2.5 min isocratic). The total time of the analysis was 10 min. The column effluent was introduced from the waste to the MS/MS system between 3 and 7 min.
We applied this method to human plasma samples from a coffee intervention study to investigate the appearance of coffee compounds 1–3 and metabolites M1–M3. Ten participants underwent a washout period (7 days) and then consumed one dose of […]. Blood samples were taken at baseline (0 h) and 1, 4, and 10 h after the intervention. […]

## C=C1C2CCC3C4(C)CC(O)CC(C(=O)OC5OC(C(=O)O)C(O)C(O)C5O)C4CCC3(C2)C1O [M1, atractyligenin-19-O-β-D-glucuronide]
0 h, before coffee intake, human plasma
  plasma level at baseline: no peaks were detected
4 h after coffee brew (200 mL), human plasma, values above LLOQ
  plasma concentration, mean ± SD: 11.7 ± 10.7 nM
4 h after coffee
  samples above the LLOQ: 80%
10 h after coffee brew (200 mL), human plasma, values above LLOQ
  plasma concentration, mean ± SD: 13.1 ± 5.8 nM
10 h after coffee
  samples above the LLOQ: 90%
Both sexes, oral, 200 mL, 1 h after coffee brew (200 mL), human plasma, values above LLOQ, read-out: plasma concentration, mean ± SD
  concentration at 1 h: 25.1 ± 4.9 nM
Both sexes, oral, 200 mL, 4 h after coffee brew (200 mL), human plasma, values above LLOQ, read-out: plasma concentration, mean ± SD
  concentration at 4 h: 14.2 ± 10.5 nM
Both sexes, oral, 200 mL, 10 h after coffee brew (200 mL), human plasma, values above LLOQ, read-out: plasma concentration, mean ± SD
  concentration at 10 h: 14.4 ± 4.4 nM
Both sexes, oral, human plasma after coffee brew (200 mL), n = 10, mean ± SD, read-out: estimated cmax in plasma
  Cmax: 25.1 ± 4.9 nM
Human plasma after coffee brew (200 mL), sampling only at 0, 1, 4, 10 h
  time of estimated cmax: 1 h
oral, 200 mL coffee brew, participant xrwz, 4 h after coffee, b = below LLOQ, read-out: plasma concentration, individual
  concentration at 4 h: 1.7 nM
oral, 200 mL, participant ayia, 1 h after coffee, read-out: plasma concentration, individual
  concentration at 1 h: 16.4 nM
oral, 200 mL, participant ayia, 4 h after coffee, b = below LLOQ, read-out: plasma concentration, individual
  concentration at 4 h: 1.7 nM
oral, 200 mL, participant ayia, 10 h after coffee, read-out: plasma concentration, individual
  concentration at 10 h: 17.2 nM
oral, 200 mL, participant cbdu, 1 h after coffee, b = below LLOQ, read-out: plasma concentration, individual
  concentration at 1 h: 24.6 nM
oral, 200 mL, participant cbdu, 4 h after coffee, read-out: plasma concentration, individual
  concentration at 4 h: 2.9 nM
oral, 200 mL, participant cbdu, 10 h after coffee, read-out: plasma concentration, individual
  concentration at 10 h: 17.8 nM
oral, 200 mL, participant eogo, 1 h after coffee, b = below LLOQ, read-out: plasma concentration, individual
  concentration at 1 h: 30 nM
oral, 200 mL, participant eogo, 4 h after coffee, b = below LLOQ, read-out: plasma concentration, individual
  concentration at 4 h: 4.6 nM
oral, 200 mL, participant eogo, 10 h after coffee, b = below LLOQ, read-out: plasma concentration, individual
  concentration at 10 h: 12.3 nM
oral, 200 mL, participant ggot, 1 h after coffee, read-out: plasma concentration, individual
  concentration at 1 h: 32.2 nM
oral, 200 mL, participant ggot, 4 h after coffee, b = below LLOQ, read-out: plasma concentration, individual
  concentration at 4 h: 9.7 nM
oral, 200 mL, participant ggot, 10 h after coffee, b = below LLOQ, read-out: plasma concentration, individual
  concentration at 10 h: 1.7 nM
oral, 200 mL, participant imhz, 1 h after coffee, read-out: plasma concentration, individual
  concentration at 1 h: 30.6 nM
oral, 200 mL, participant imhz, 4 h after coffee, read-out: plasma concentration, individual
  concentration at 4 h: 10.5 nM
oral, 200 mL, participant imhz, 10 h after coffee, read-out: plasma concentration, individual
  concentration at 10 h: 21.5 nM
oral, 200 mL, participant mgjj, 1 h after coffee, read-out: plasma concentration, individual
  concentration at 1 h: 23.6 nM
oral, 200 mL, participant mgjj, 4 h after coffee, read-out: plasma concentration, individual
  concentration at 4 h: 12.4 nM
oral, 200 mL, participant mgjj, 10 h after coffee, read-out: plasma concentration, individual
  concentration at 10 h: 17.5 nM
oral, 200 mL, participant rrmk, 1 h after coffee, read-out: plasma concentration, individual
  concentration at 1 h: 22 nM
oral, 200 mL, participant rrmk, 4 h after coffee, b = below LLOQ, read-out: plasma concentration, individual
  concentration at 4 h: 19.7 nM
oral, 200 mL, participant rrmk, 10 h after coffee, read-out: plasma concentration, individual
  concentration at 10 h: 14.4 nM
oral, 200 mL, participant wbqj, 1 h after coffee, b = below LLOQ, read-out: plasma concentration, individual
  concentration at 1 h: 27.5 nM
oral, 200 mL, participant wbqj, 4 h after coffee, b = below LLOQ, read-out: plasma concentration, individual
  concentration at 4 h: 36 nM
oral, 200 mL, participant wbqj, 10 h after coffee, b = below LLOQ, read-out: plasma concentration, individual
  concentration at 10 h: 8.5 nM
oral, 200 mL, participant wbvs, 1 h after coffee, read-out: plasma concentration, individual
  concentration at 1 h: 23.8 nM
oral, 200 mL, participant wbvs, 4 h after coffee, read-out: plasma concentration, individual
  concentration at 4 h: 17.8 nM
oral, 200 mL, participant wbvs, 10 h after coffee, read-out: plasma concentration, individual
  concentration at 10 h: 9.7 nM
oral, 200 mL, participant xrwz, 1 h after coffee, read-out: plasma concentration, individual
  concentration at 1 h: 20.2 nM
oral, 200 mL, participant xrwz, 10 h after coffee, b = below LLOQ, read-out: plasma concentration, individual
  concentration at 10 h: 10.5 nM
Individual plots, after first maximum at 1 h
  participants in whom plasma concentration increased between 4 and 10 h: 60%

Source: paper PMC10722499, “Consumption of Roasted Coffee Leads to Conjugated Metabolites of Atractyligenin in Human Plasma” (Journal of Agricultural and Food Chemistry, 2023)
